Assay results as given in US7160733B2, “Ligand specific to β2-glycoprotein I and use thereof” (priority 2001, dated 2007).

Key:
β2-GPI = target: T1, β2-GPI (Homo sapiens, UniProt P02749); assay: ELISA on solid-phase lipid (ligand)-coated plate: β2-GPI binding detected with Cof-22
T1 construct: β2-GPI was purified from normal human plasma as described in [35] with slight modification; from tissue; host or cells: pooled normal human plasma from healthy subjects
T1 sequence (P02749 20-345): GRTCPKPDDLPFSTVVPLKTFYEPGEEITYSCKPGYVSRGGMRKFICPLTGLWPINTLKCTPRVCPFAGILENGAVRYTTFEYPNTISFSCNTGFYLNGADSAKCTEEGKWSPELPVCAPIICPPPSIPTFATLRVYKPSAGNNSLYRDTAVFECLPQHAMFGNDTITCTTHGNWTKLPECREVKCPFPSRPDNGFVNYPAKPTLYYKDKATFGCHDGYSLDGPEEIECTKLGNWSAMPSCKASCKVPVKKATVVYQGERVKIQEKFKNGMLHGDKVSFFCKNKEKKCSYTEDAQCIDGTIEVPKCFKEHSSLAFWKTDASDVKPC
Description: (§1) Binding to extracted lipids: A microtiter plate (Immulon 1B, Dynex Technologies Inc.) was coated with lipids extracted from LDLs (50 μg/mL, 50 μL/well) by ethanol evaporation. The wells were blocked with PBS containing 1% BSA for one hour and the wells were incubated with 30 μg/mL of β2-GPI for one hour. Then, β2-GPI binding was detected using Cof-22 and HRP-labeled anti-mouse IgG antibodies. Alternatively, an anti-β2-GPI autoantibody (Cof-22, WB-CAL-1, or EY2C9) was diluted with a 0.3% BSA-containing PBS, and the diluted antibody was added to the coated plate (1.0 μg/mL, 100 μL/well) and incubated with β2-GPI (15 μg/mL) for one hour. The binding of the antibody was detected by an HRP-labeled anti-mouse IgG /or an anti-human IgM. The color was developed with H2O2 and o-phenylenediamine, and OD was measured at 490 nm. Between these steps, extensive washing were done using PBS containing 0.05% Tween 20.
(§2) Synthesized oxLig-1 (50 μg/mL, 50 μL/well) was adsorbed by evaporation on a polystyrene plate (Immulon 1B; Dynex Technologies Inc.), and the plate was then blocked with 1% BSA. Serum samples (diluted 1:100 with PBS containing 0.3% BSA) were incubated in the wells with β2-GPI (15 μg/mL) or other proteins for one hour at room temperature. Antibody binding was detected with HRP-labeled anti-human IgG. Further steps were performed through a method as described in “anti-β2-GPI ELISA.”
(§3) CL (50 μg/mL, 50 μL/well) was adsorbed on a polystyrene plate (Immulon 1B), and further steps were performed through a method as described in “ELISA for antibodies against a protein-oxLig-1 complex.”

WB-CAL-1 = assay: ELISA on solid-phase lipid (ligand)-coated plate: WB-CAL-1 binding in presence of β2-GPI; set-up: species or system mouse
Description: as §1, §2, §3

APS-1 = assay: ELISA on solid-phase lipid-coated plate: binding of antibodies of APS patient serum APS-1; set-up: species or system human; settings: Experiment 1; Absorbance, mean ± SD, n = 3; solid-phase lipid, β2-GPI 15 μg/mL; serum with β2-GPI removed
Description: (§4) To eliminate endogenous β2-GPI in some experiments, serum samples were passed through a heparin-Sepharose column. The effluent was dialyzed against PBS and was used for ELISAs.
as §2, §3

APS-2 = assay: ELISA on solid-phase lipid-coated plate: binding of antibodies of APS patient serum APS-2; set-up: species or system human; settings: Experiment 1; Absorbance, mean ± SD, n = 3; solid-phase lipid, β2-GPI 15 μg/mL; serum with β2-GPI removed
Description: as §4, §2, §3

anti-β2-GPI antibodies = assay: ELISA of the anti-β2-GPI antibodies by use of a ligand-coated plate (results in words); assay type: binding; settings: result in words
Description: as §1, §2

[1] = target: T2, β2-GPI and anti-β2-GPI antibodies (Cof-22, WB-CAL-1, EY2C9) (Homo sapiens, UniProt P02749); assay: TLC ligand blot with β2-GPI and anti-β2-GPI antibodies; assay type: binding; settings: result in words
T2 construct: β2-GPI was purified from normal human plasma as described in [35] with slight modification; from tissue; host or cells: β2-GPI from pooled normal human plasma
T2 sequence (P02749 20-345): T1 sequence (P02749 20-345)
Description: Extracted lipids were spotted on a Polygram silica gel plate (product of Machery-Nagel) and developed in chloroform/methanol/30% ammonia/water (120:80:10:5, v/v/v/v, hereinafter referred to as solvent A). The plate was stained with I2 vapor, or with a spray of molybdenum blue, of 2N sulfuric acid containing 2% orcin, or of glacial acetic acid/sulfuric acid (19:1, v/v) (Lieberman-Burchard reaction). Alternatively, the developed plate was subjected to ligand blot with β2-GPI and an anti-β2-GPI antibody. TLC plates were blocked with PBS containing 1% bovine serum albumin (BSA) and were subsequently incubated with β2-GPI, anti-β2-GPI antibodies (Cof-22, WB-CAL-1, or EY2C9), and HRP-labeled anti-mouse IgG antibodies or anti-human IgM antibodies for one hour. In each step, plates were extensively washed with PBS. The color was developed with H2O2 and 4-methoxy-1-naphtol (product of Aldrich). The ligand-enriched bands scraped from the TLC plate were subjected to another TLC in chloroform/methanol (8:1, v/v) (hereinafter referred to as solvent B). […]
A fraction rich in a ligand (originating from oxLDL) obtained by two-step TLC was analyzed by reversed phase HPLC on a Sephasil Peptide C-18 5-μm column (4.6 mm×250 mm; product of Amersham-Pharmacia Biotech). […]

[2] = Experiment 1, Absorbance, mean ± SD, n = 3, solid-phase lipid, β2-GPI 15 μg/mL
[3] = absorbance at 490 nm, mean ± SD (n = 3), solid-phase ligand not methylated

CC(C)CCC[C@@H](C)[C@H]1CC[C@H]2[C@@H]3C(=O)C=C4C[C@@H](OC(=O)CCCCCCCC(=O)O)CC[C@]4(C)[C@H]3CC[C@]12C [oxLig-1, 9-oxo-9-(7-ketocholest-5-en-3β-yloxy)nonanoic acid]
Binding of β2-GPI-dependent aCL, Cof-22 (β2-GPI; [2]): 1.066 ± 0.114
β2-GPI binding (Cof-22 binding), No treatment (β2-GPI; [3]): 1.307 +/− 0.105
β2-GPI binding to lipid (β2-GPI; result in words (discussion)): significant bonding
Binding of β2-GPI-dependent aCL, WB-CAL-1 (WB-CAL-1; [2]): 1.035 ± 0.062
WB-CAL-1 binding, No treatment (WB-CAL-1; [3]): 0.945 +/− 0.068
Binding of β2-GPI-dependent aCL, APS-1 (APS-1): 1.130 ± 0.177
Binding of β2-GPI-dependent aCL, APS-2 (APS-2): 1.222 ± 0.057
binding of the anti-β2-GPI autoantibodies (WB-CAL-1 and EY2C9) to solid-phase ligand (anti-β2-GPI antibodies; ligand-coated plate): significant binding
cross-reaction of autoantibodies derived from APS with β2-GPI complexed with lipid (anti-β2-GPI antibodies): cross-reacted
ligand blot: interaction of β2-GPI and anti-β2-GPI antibodies with ligand [1]: positively stained
ligand blot: interaction of β2-GPI and anti-β2-GPI antibodies with ligand ([1]; listed as Synthesized oxLig-1): same Rf position and binding characteristics
